Measurements as given in patent US11179437B2, “COP9 signalosome (CSN) complex modulators and uses thereof” (Yeda Research and Development Co. Ltd., priority 2017, dated 2021).

Legend:
HAP1 cells = assay: Cell cycle analysis by flow cytometry (double thymidine block or asynchronous BrdU/propidium iodide); assay type: cell-based, human; settings: WT cells expressing or exposed to the C-terminal CSNAP segment; release from double thymidine block (FIG. 9)
Experimental: UV treated cells were exposed to 5 J/m^2 dose at release, and fixed with ethanol at different time points. Cell cycle phases were assessed by flow cytometry (LSRII, BD Biosciences) following propidium iodide staining. Asynchronous cells were analyzed using propidium iodide and BrdU double staining. 10^5 cells were denatured after fixation using 2N HCl, 0.5% Triton X-100 in PBS for 30 minutes, neutralized in 0.1M Na2B4O7 pH8.5 and incubated with 5 μl of anti-BrdU-FITC (eBioscience 11-5071-41) 1% BSA, 0.5% Triton X-100 in PBS for 1 hour. Cells were washed in 1% BSA in PBS and resuspended in PBS containing 50 μg/ml propidium iodide and 50 μg/ml RNAse A, and analyzed in FACSAria Fusion flow cytometer (BD Biosciences).

cells = assay: Cell death in cells exposed to the C-terminal peptide; assay type: cell-based

Sequence: DFFNDFEDLFDDDDIQ [C-terminal peptide, peptide comprising the C-terminal region of CSNAP, responsible for assembly into the CSN complex]
- cell cycle progression (HAP1 cells): capable of preventing cell cycle progression
- induction of cell death (cells): induce cell death
